Data: patent US20200131669A1, “CYCLIC PEPTIDE COMPOUND HAVING HIGH MEMBRANE PERMEABILITY, AND LIBRARY CONTAINING SAME” (Chugai Seiyaku Kabushiki Kaisha, priority 2017, published 2020)
Positions of bridges follow the written chain, without caps; N, C: chain ends. Non-standard residues stand in square brackets, D forms with d. Residues, ends and D or L forms follow the SMILES beside them. ξ: configuration not given here. *: point of attachment. Phe(4-CF3) = N[C@@H](Cc1ccc(C(F)(F)F)cc1)C(=O)O; hhPhe = N[C@@H](CCCc1ccccc1)C(=O)O; Hyp = O=C(O)[C@@H]1C[C@@H](O)CN1; NMeF = CN[C@@H](Cc1ccccc1)C(=O)O; NMeI = CC[C@H](C)[C@H](NC)C(=O)O; NMeD = CN[C@@H](CC(=O)O)C(=O)O; NMeL = CN[C@@H](CC(C)C)C(=O)O; NMeV = CN[C@H](C(=O)O)C(C)C; Pip = O=C(O)[C@@H]1CCCCN1; NMeA = CN[C@@H](C)C(=O)O; Piperidide = C1CCN(*)CC1; dAbu = CC[C@@H](N)C(=O)O; dNMeA = CN[C@H](C)C(=O)O; Bn = c1ccc(C*)cc1; ξS = NC(CO)C(=O)O; Sar = CNCC(=O)O; tBu = CC(C)(C)*

Assay: Caco-2 membrane permeability, improved method as used in the following Examples (96-well, 20 to 24 h preincubation)
Format: in vitro ADME
Conditions: human, Caco-2, Caco-2
Method in brief: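 Caco-2 monolayers were grown three weeks and preincubated 20–24 h at 37 °C with compound in DMEM+FaSSIF (1% DMSO) apically. The assay then used compound in FaSSIF/HBSS (1% DMSO, pH 6.0) apically and HBSS with 4% BSA (pH 7.4) basally. Basal samples were taken at 180 min for LC/MS, and Papp (cm/sec) was calculated.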

**Q.** Which Papp A→B at 180 min does the source give for `CC[C@H](C)[C@H]1C(=O)N[C@H](C(=O)N2CCCCC2)CC(=O)N(C)CC(=O)N(C)[C@@H](Cc2ccccc2)C(=O)N[C@@H](CCCc2ccccc2)C(=O)N(C)[C@@H](CC(C)C)C(=O)N[C@@H]([C@@H](C)O)C(=O)N(C)CC(=O)N(C)[C@@H](Cc2ccccc2)C(=O)N(C)[C@@H](CC(C)C)C(=O)N[C@@H](COC(C)(C)C)C(=O)N1C` [pd366] ([Sar][NMeF][hhPhe][NMeL]T[Sar][NMeF][NMeL]S(tBu)[NMeI]D-Piperidide; lactam N-11) here?
**A.** 1.8 ×10⁻⁶ cm/s

**Q.** Which Papp A→B at 180 min does the source give for `CC[C@H](C)[C@@H]1NC(=O)[C@H](Cc2ccccc2)N(C)C(=O)CN(C)C(=O)C[C@@H](C(=O)N2CCCCC2)NC(=O)[C@H](C)N(C)C(=O)[C@H](CCCc2ccccc2)NC(=O)[C@H](CC(C)C)N(C)C(=O)[C@H](Cc2ccccc2)N(C)C(=O)CN(C)C(=O)[C@H]([C@@H](C)O)NC(=O)[C@H](CC(C)C)N(C)C1=O` [pd367] ([Sar][NMeF]I[NMeL]T[Sar][NMeF][NMeL][hhPhe][NMeA]D-Piperidide; lactam N-11) here?
**A.** 1.5 ×10⁻⁶ cm/s

**Q.** For `CC(C)C[C@H]1C(=O)N[C@@H]([C@@H](C)O)C(=O)N(C)CC(=O)N(C)[C@@H](Cc2ccccc2)C(=O)N(C)[C@@H](CC(C)C)C(=O)N[C@@H](COC(C)(C)C)C(=O)N(C)[C@@H](CC(C)C)C(=O)N[C@H](C(=O)N2CCCCC2)CC(=O)N(C)CC(=O)N(C)[C@@H](Cc2ccccc2)C(=O)N[C@@H](COCc2ccccc2)C(=O)N1C` [pd369] ([Sar][NMeF]S(Bn)[NMeL]T[Sar][NMeF][NMeL]S(tBu)[NMeL]D-Piperidide; lactam N-11), which Papp A→B at 180 min is on record?
**A.** 3 ×10⁻⁶ cm/s

**Q.** Which Papp A→B at 180 min does the source give for `CC[C@H](C)[C@@H]1NC(=O)[C@H](Cc2ccccc2)N(C)C(=O)CN(C)C(=O)C[C@@H](C(=O)N2CCCCC2)NC(=O)[C@H]([C@@H](C)CC)N(C)C(=O)C(COCc2ccccc2)NC(=O)[C@H](CC(C)C)N(C)C(=O)[C@H](Cc2ccccc2)N(C)C(=O)CN(C)C(=O)[C@H]([C@@H](C)O)NC(=O)[C@H](CC(C)C)N(C)C1=O` (stereo partly drawn) [pd370] ([Sar][NMeF]I[NMeL]T[Sar][NMeF][NMeL][ξS](Bn)[NMeI]D-Piperidide; lactam N-11) here?
**A.** 2.5 ×10⁻⁶ cm/s

**Q.** For `CCO[C@@H]1C[C@H]2C(=O)N(C)[C@@H](CC(C)C)C(=O)N[C@@H]([C@@H](C)CC)C(=O)N(C)[C@@H](CC(C)C)C(=O)N[C@@H](CC(C)C)C(=O)N[C@H](C(=O)N3CCCCC3)CC(=O)N(C)[C@H](C)C(=O)N(C)[C@@H](CC(C)C)C(=O)N[C@@H](CC(C)C)C(=O)N(C)[C@@H](CC(C)C)C(=O)N[C@@H]([C@@H](C)O)C(=O)N2C1` [pd371] ([dNMeA][NMeL]L[NMeL]T[Hyp](Et)[NMeL]I[NMeL]LD-Piperidide; lactam N-11), which Papp A→B at 180 min is on record?
**A.** 3.4 ×10⁻⁶ cm/s

**Q.** Which Papp A→B at 180 min does the source give for `CCO[C@@H]1C[C@H]2C(=O)N(C)[C@@H](CC(C)C)C(=O)N[C@@H]([C@@H](C)O)C(=O)N(C)[C@@H](Cc3ccccc3)C(=O)N[C@@H](Cc3ccccc3)C(=O)N(C)[C@@H](CC(C)C)C(=O)N[C@H](C(=O)N3CCCCC3)CC(=O)N[C@H](CC(C)C)C(=O)N3CCC[C@H]3C(=O)N[C@@H](COC(C)(C)C)C(=O)N(C)[C@@H](CC(C)C)C(=O)N2C1` [pd372] ([dL]PS(tBu)[NMeL][Hyp](Et)[NMeL]T[NMeF]F[NMeL]D-Piperidide; lactam N-11) here?
**A.** 1.4 ×10⁻⁶ cm/s

**Q.** Which Papp A→B at 180 min does the source give for `CCO[C@@H]1C[C@H]2C(=O)N(C)[C@@H](CC(C)C)C(=O)N[C@@H]([C@@H](C)O)C(=O)N(C)[C@@H](Cc3ccccc3)C(=O)N[C@@H](Cc3ccccc3)C(=O)N(C)[C@@H](CC(C)C)C(=O)N(C)[C@H](C(=O)N3CCCCC3)CC(=O)N[C@@H](C)C(=O)N(C)[C@@H](C(C)C)C(=O)N[C@@H](COC(C)(C)C)C(=O)N(C)[C@@H](CC(C)C)C(=O)N2C1` [pd373] (A[NMeV]S(tBu)[NMeL][Hyp](Et)[NMeL]T[NMeF]F[NMeL][NMeD]-Piperidide; lactam N-11) here?
**A.** 2 ×10⁻⁶ cm/s

**Q.** For `CCO[C@@H]1C[C@H]2C(=O)N[C@H](C(=O)N3CCCCC3)CC(=O)N[C@@H](C(C)C)C(=O)NCC(=O)N(C)[C@@H](CC(C)C)C(=O)N(C)[C@@H](CC(C)C)C(=O)N(C)[C@@H](CC(C)C)C(=O)N(C)[C@@H](Cc3ccccc3)C(=O)N[C@@H]([C@@H](C)O)C(=O)N(C)[C@@H](Cc3ccccc3)C(=O)N(C)[C@@H](CC(C)C)C(=O)N2C1` [pd374] (VG[NMeL][NMeL][NMeL][NMeF]T[NMeF][NMeL][Hyp](Et)D-Piperidide; lactam N-11), which Papp A→B at 180 min is on record?
**A.** 2.5 ×10⁻⁶ cm/s

**Q.** With `CCO[C@@H]1C[C@H]2C(=O)N[C@@H](Cc3ccccc3)C(=O)N(C)[C@@H](CC(C)C)C(=O)N[C@H](C(=O)N3CCCCC3)CC(=O)N[C@H](CC)C(=O)N(C)[C@@H](CC(C)C)C(=O)N[C@@H](COC(C)(C)C)C(=O)N(C)[C@@H](CC(C)C)C(=O)N[C@@H](CC(C)C)C(=O)N(C)[C@@H](CC(C)C)C(=O)N[C@@H]([C@@H](C)O)C(=O)N2C1` [pd375] ([dAbu][NMeL]S(tBu)[NMeL]L[NMeL]T[Hyp](Et)F[NMeL]D-Piperidide; lactam N-11) as the molecule, how does the Papp A→B at 180 min read?
**A.** 2.9 ×10⁻⁶ cm/s

**Q.** Which Papp A→B at 180 min does the source give for `CCO[C@@H]1C[C@H]2C(=O)N(C)[C@@H](C(C)C)C(=O)N[C@@H]([C@@H](C)O)C(=O)N(C)[C@@H](Cc3ccccc3)C(=O)N[C@@H](Cc3ccccc3)C(=O)N(C)[C@@H](CC(C)C)C(=O)N(C)[C@H](C(=O)N3CCCCC3)CC(=O)N3CCC[C@H]3C(=O)N(C)[C@@H](C(C)C)C(=O)N[C@@H](COC(C)(C)C)C(=O)N(C)[C@@H](CC(C)C)C(=O)N2C1` [pd376] (P[NMeV]S(tBu)[NMeL][Hyp](Et)[NMeV]T[NMeF]F[NMeL][NMeD]-Piperidide; lactam N-11) here?
**A.** 2.4 ×10⁻⁶ cm/s

**Q.** For `CCO[C@@H]1C[C@H]2C(=O)N(C)[C@@H](CC(C)C)C(=O)N[C@@H]([C@@H](C)O)C(=O)N(C)[C@@H](CC(C)C)C(=O)N(C)[C@@H](C(C)C)C(=O)N[C@@H](Cc3ccc(C(F)(F)F)cc3)C(=O)N3CCCC[C@H]3C(=O)N[C@@H](CC(C)C)C(=O)N[C@H](C(=O)N3CCCCC3)CC(=O)N(C)[C@H](C)C(=O)N(C)[C@@H](CC(C)C)C(=O)N2C1` [pd377] ([dNMeA][NMeL][Hyp](Et)[NMeL]T[NMeL][NMeV][Phe(4-CF3)][Pip]LD-Piperidide; lactam N-11), which Papp A→B at 180 min is on record?
**A.** 1.4 ×10⁻⁶ cm/s

Same assay, conditions: human; Papp, Caco-2 membrane permeability, improved method; read-out: Caco-2

**Q.** Which Papp A→B at 180 min does the source give for `CC(C)C[C@@H]1NC(=O)[C@H](C)N(C)C(=O)C[C@@H](C(=O)N2CCCCC2)NC(=O)[C@H](CC(C)C)N(C)C(=O)CN(C)C(=O)[C@H]([C@@H](C)O)NC(=O)[C@H](C)N(C)C(=O)[C@H](Cc2ccccc2)N(C)C(=O)[C@H](COCc2ccccc2)NC(=O)[C@H](Cc2ccccc2)N(C)C(=O)[C@H](CC(C)C)N(C)C1=O` [pd368] ([NMeA]L[NMeL][NMeF]S(Bn)[NMeF][NMeA]T[Sar][NMeL]D-Piperidide; lactam N-11) here?
**A.** 2 ×10⁻⁶ cm/s
